In ChEMBL document CHEMBL3885881, “DrugMatrix”:

What was measured:
Rattus norvegicus [1] = organism: Rattus norvegicus; experiment: DrugMatrix - Regimen: Daily Repeat; assay type: toxicity, organism-based, Sprague-Dawley; parameters: regimen Daily Repeat, gender Male, age 6-8 weeks; settings: in vivo, po, 17 mg/kg, route oral GAVAGE, dose level High, vehicle .5 % CMC
Rattus norvegicus [2] = organism: Rattus norvegicus; assay type: toxicity, organism-based, Sprague-Dawley; settings: in vivo, po, 17 mg/kg, 24 h, route oral GAVAGE, dose level High, time 1 day, vehicle .5 % CMC
Description: DrugMatrix - Regimen: Single

[3] = […], tissue Plasma, time 14 day

Question: With `O=C(Nc1c(Cl)cncc1Cl)c1ccc(OC(F)F)c(OCC2CC2)c1` [ROFLUMILAST] as the molecule, how does the “URIC ACID” value (Rattus norvegicus [1]; 96 h, tissue Plasma, time 4 day) read?
Answer: 1.7 mg/dL

Question: And the “ABSOLUTE BASOPHIL” value (Rattus norvegicus [1]; […], tissue Blood, time 14 day)?
Answer: 0 CELLS/uL

Question: What about the “ABSOLUTE EOSINOPHIL” value (Rattus norvegicus [1]; […], tissue Blood, time 14 day) of the same molecule?
Answer: 0 CELLS/uL

Question: And the “ABSOLUTE LYMPHOCYTE” value (Rattus norvegicus [1]; […], tissue Blood, time 14 day)?
Answer: 3828.67 CELLS/uL

Question: What about the “ABSOLUTE MONOCYTE” value (Rattus norvegicus [1]; […], tissue Blood, time 14 day) of the same molecule?
Answer: 852.67 CELLS/uL

Question: What about the “ABSOLUTE SEGMENTED NEUTROPHIL” value (Rattus norvegicus [1]; […], tissue Blood, time 14 day) of the same molecule?
Answer: 8985.33 CELLS/uL

Question: And the BASOPHIL (Rattus norvegicus [1]; […], tissue Blood, time 14 day)?
Answer: 0%

Question: And the EOSINOPHIL (Rattus norvegicus [1]; […], tissue Blood, time 14 day)?
Answer: 0%

Question: And the “ERYTHROCYTE COUNT” value (Rattus norvegicus [1]; […], tissue Blood, time 14 day)?
Answer: 7.38 x10E6/uL

Question: And the HEMATOCRIT (Rattus norvegicus [1]; […], tissue Blood, time 14 day)?
Answer: 41.2%

Question: What about the HEMOGLOBIN (Rattus norvegicus [1]; […], tissue Blood, time 14 day) of the same molecule?
Answer: 14.73 G/DL

Question: And the “LEUKOCYTE COUNT” value (Rattus norvegicus [1]; […], tissue Blood, time 14 day)?
Answer: 13.67 x10E3/uL

Question: What about the LYMPHOCYTE (Rattus norvegicus [1]; […], tissue Blood, time 14 day) of the same molecule?
Answer: 26%

Question: What about the “MEAN CORPUSCULAR HEMOGLOBIN” value (Rattus norvegicus [1]; […], tissue Blood, time 14 day) of the same molecule?
Answer: 20 pg

Question: And the “MEAN CORPUSCULAR HEMOGLOBIN CONCENTRATION” value (Rattus norvegicus [1]; […], tissue Blood, time 14 day)?
Answer: 35.83 G/DL

Question: What about the MONOCYTE (Rattus norvegicus [1]; […], tissue Blood, time 14 day) of the same molecule?
Answer: 6.33%

Question: What about the NEUTROPHIL (Rattus norvegicus [1]; […], tissue Blood, time 14 day) of the same molecule?
Answer: 67.67%

Question: And the “NUCLEATED RED BLOOD CELLS” value (Rattus norvegicus [1]; […], tissue Blood, time 14 day)?
Answer: 0 /100WBC

Question: And the “PLATELET COUNT” value (Rattus norvegicus [1]; […], tissue Blood, time 14 day)?
Answer: 2047.33 x10E3/uL

Question: And the “ALANINE AMINOTRANSFERASE” value (Rattus norvegicus [1]; [3])?
Answer: 33 u/L

Question: And the ALBUMIN (Rattus norvegicus [1]; [3])?
Answer: 3.1 G/DL

Question: What about the “ALKALINE PHOSPHATASE” value (Rattus norvegicus [1]; [3]) of the same molecule?
Answer: 109 u/L

Question: What about the “ASPARTATE AMINOTRANSFERASE” value (Rattus norvegicus [1]; [3]) of the same molecule?
Answer: 103.67 u/L

Question: And the “BLOOD UREA NITROGEN” value (Rattus norvegicus [1]; [3])?
Answer: 25 mg/dL

Question: And the “CARBON DIOXIDE” value (Rattus norvegicus [1]; [3])?
Answer: 30 mmol/L

Question: What about the CHLORIDE (Rattus norvegicus [1]; [3]) of the same molecule?
Answer: 97.5 MEQ/L

Question: And the CHOLESTEROL (Rattus norvegicus [1]; [3])?
Answer: 42.5 mg/dL

Question: And the CREATININE (Rattus norvegicus [1]; [3])?
Answer: 0.19 mg/dL

Question: And the GLUCOSE (Rattus norvegicus [1]; [3])?
Answer: 128 mg/dL

Question: And the “LACTATE DEHYDROGENASE” value (Rattus norvegicus [1]; [3])?
Answer: 569 u/L

Question: And the LIPASE (Rattus norvegicus [1]; [3])?
Answer: 10 u/L

Question: What about the PHOSPHORUS (Rattus norvegicus [1]; [3]) of the same molecule?
Answer: 9.15 mg/dL

Question: And the POTASSIUM (Rattus norvegicus [1]; [3])?
Answer: 5.72 MEQ/L

Question: And the SODIUM (Rattus norvegicus [1]; [3])?
Answer: 142.95 MEQ/L

Question: And the “TOTAL BILIRUBIN” value (Rattus norvegicus [1]; [3])?
Answer: 0.1 mg/dL

Question: And the “TOTAL PROTEIN” value (Rattus norvegicus [1]; [3])?
Answer: 6.25 G/DL

Question: And the “URIC ACID” value (Rattus norvegicus [1]; [3])?
Answer: 1.7 mg/dL

Question: And the “ABSOLUTE EOSINOPHIL” value (Rattus norvegicus [2]; tissue Blood)?
Answer: 58.67 CELLS/uL

Question: And the “ABSOLUTE LYMPHOCYTE” value (Rattus norvegicus [2]; tissue Blood)?
Answer: 7680 CELLS/uL

Question: What about the “ABSOLUTE MONOCYTE” value (Rattus norvegicus [2]; tissue Blood) of the same molecule?
Answer: 245.33 CELLS/uL

Question: And the “ABSOLUTE SEGMENTED NEUTROPHIL” value (Rattus norvegicus [2]; tissue Blood)?
Answer: 416 CELLS/uL

Question: And the BASOPHIL (Rattus norvegicus [2]; tissue Blood)?
Answer: 0%

Question: And the EOSINOPHIL (Rattus norvegicus [2]; tissue Blood)?
Answer: 0.67%

Question: What about the “ERYTHROCYTE COUNT” value (Rattus norvegicus [2]; tissue Blood) of the same molecule?
Answer: 5.72 x10E6/uL

Question: What about the HEMATOCRIT (Rattus norvegicus [2]; tissue Blood) of the same molecule?
Answer: 34.83%

Question: What about the HEMOGLOBIN (Rattus norvegicus [2]; tissue Blood) of the same molecule?
Answer: 12.9 G/DL

Question: What about the “LEUKOCYTE COUNT” value (Rattus norvegicus [2]; tissue Blood) of the same molecule?
Answer: 8.4 x10E3/uL

Question: And the LYMPHOCYTE (Rattus norvegicus [2]; tissue Blood)?
Answer: 91.33%

Question: And the “MEAN CORPUSCULAR HEMOGLOBIN” value (Rattus norvegicus [2]; tissue Blood)?
Answer: 22.67 pg

Question: And the “MEAN CORPUSCULAR HEMOGLOBIN CONCENTRATION” value (Rattus norvegicus [2]; tissue Blood)?
Answer: 37.1 G/DL

Question: And the MONOCYTE (Rattus norvegicus [2]; tissue Blood)?
Answer: 3%

Question: What about the NEUTROPHIL (Rattus norvegicus [2]; tissue Blood) of the same molecule?
Answer: 5%

Question: What about the “NUCLEATED RED BLOOD CELLS” value (Rattus norvegicus [2]; tissue Blood) of the same molecule?
Answer: 0 /100WBC

Question: And the “PLATELET COUNT” value (Rattus norvegicus [2]; tissue Blood)?
Answer: 734 x10E3/uL

Question: And the “ALANINE AMINOTRANSFERASE” value (Rattus norvegicus [2]; tissue Plasma)?
Answer: 52.33 u/L

Question: And the ALBUMIN (Rattus norvegicus [2]; tissue Plasma)?
Answer: 4.07 G/DL

Question: What about the “ALKALINE PHOSPHATASE” value (Rattus norvegicus [2]; tissue Plasma) of the same molecule?
Answer: 343 u/L

Question: What about the “ASPARTATE AMINOTRANSFERASE” value (Rattus norvegicus [2]; tissue Plasma) of the same molecule?
Answer: 103 u/L

Question: And the “BLOOD UREA NITROGEN” value (Rattus norvegicus [2]; tissue Plasma)?
Answer: 16.33 mg/dL

Question: What about the “CARBON DIOXIDE” value (Rattus norvegicus [2]; tissue Plasma) of the same molecule?
Answer: 32 mmol/L

Question: What about the CHLORIDE (Rattus norvegicus [2]; tissue Plasma) of the same molecule?
Answer: 103.33 MEQ/L

Question: What about the CHOLESTEROL (Rattus norvegicus [2]; tissue Plasma) of the same molecule?
Answer: 76.67 mg/dL

Question: What about the CREATININE (Rattus norvegicus [2]; tissue Plasma) of the same molecule?
Answer: 0.17 mg/dL

Question: And the GLUCOSE (Rattus norvegicus [2]; tissue Plasma)?
Answer: 156.33 mg/dL

Question: And the “LACTATE DEHYDROGENASE” value (Rattus norvegicus [2]; tissue Plasma)?
Answer: 133.67 u/L

Question: And the LIPASE (Rattus norvegicus [2]; tissue Plasma)?
Answer: 9.33 u/L

Question: And the PHOSPHORUS (Rattus norvegicus [2]; tissue Plasma)?
Answer: 12.87 mg/dL

Question: What about the POTASSIUM (Rattus norvegicus [2]; tissue Plasma) of the same molecule?
Answer: 6.09 MEQ/L

Question: What about the SODIUM (Rattus norvegicus [2]; tissue Plasma) of the same molecule?
Answer: 148.53 MEQ/L

Question: And the “TOTAL BILIRUBIN” value (Rattus norvegicus [2]; tissue Plasma)?
Answer: 0.17 mg/dL

Question: And the “TOTAL PROTEIN” value (Rattus norvegicus [2]; tissue Plasma)?
Answer: 6.2 G/DL

Question: And the “URIC ACID” value (Rattus norvegicus [2]; tissue Plasma)?
Answer: 1.27 mg/dL
